IC50 data for eight molecules are collected here from ChEMBL document CHEMBL2434900, “Synthesis of novel benzo[4,5]thiazolo[1,2-a]pyrimidine-3-carboxylate derivatives and biological evaluation as potential anticancer agents” (Eur J Med Chem, 2013).

Type in all cases: functional, cell-based
One assay concerns A549. As to the kind of experiment: Cytotoxicity against human A549 cells by MTT assay. Background: Tetrazolium dyes change colour on reduction, which living cells bring about.
For a further assay, the system named is MCF7. As to the kind of experiment: Cytotoxicity against human MCF7 cells by MTT assay.
The test system of another assay is HeLa. The assay is described as follows: Cytotoxicity against human HeLa cells by MTT assay.
In another assay the test system is MDA-MB-231. The assay is described as follows: Cytotoxicity against human MDA-MB-231 cells by MTT assay.

For orientation: IC50 means the concentration needed to halve the response being measured. Lower therefore signals greater potency in that assay.

The structures appear in SMILES notation.

With `CC1=C(C(=O)NCCC(=O)N2CCN(c3ccc([N+](=O)[O-])cc3)CC2)C(c2ccccc2)N2C(=N1)Sc1ccccc12` (centres undefined), the IC50 in the assay with A549 is 11.2 µM; in the assay with MCF7, 13.8 µM; with HeLa, 25.7 µM.
Consider `CC1=C(C(=O)N2CCCCC2)C(c2ccccc2)N2C(=N1)Sc1ccccc12` (centres undefined), for which the IC50 in the assay with MCF7 was 11.7 µM; in the assay on MDA-MB-231, 5.01 µM.
The corresponding values for `CC1=C(C(=O)N2CCN(C)CC2)C(c2ccccc2)N2C(=N1)Sc1ccccc12` (centres undefined) are 0.58 µM and 1.58 µM.
The like results for `CC1=C(C(=O)N2CCOCC2)C(c2ccccc2)N2C(=N1)Sc1ccccc12` (centres undefined) were, in that order, 10.1 µM and 11.1 µM.
The corresponding values for `CC1=C(C(=O)N2CCN(c3ccccc3)CC2)C(c2ccccc2)N2C(=N1)Sc1ccccc12` (centres undefined) are 77.6 µM and 31.6 µM.
For the molecule `CC1=C(C(=O)N2CCN(c3ccc([N+](=O)[O-])cc3)CC2)C(c2ccccc2)N2C(=N1)Sc1ccccc12` (centres undefined), the 50% inhibitory concentration (IC50) is 29 µM in the assay with MCF7 and 47.2 µM in the assay on MDA-MB-231.
For `CC1=C(C(=O)NCCC(=O)N2CCCCC2)C(c2ccccc2)N2C(=N1)Sc1ccccc12` (centres undefined), the IC50 came out at 18.1 µM in the assay with A549, 16.8 µM with MCF7, 21.7 µM in the assay on MDA-MB-231 and 11.4 µM in the assay on HeLa.
Turning to `COc1cccc2c1C(=O)c1c(O)c3c(c(O)c1C2=O)C[C@@](O)(C(=O)CO)C[C@@H]3O[C@H]1C[C@H](N)[C@H](O)[C@H](C)O1` [DOXORUBICIN], the IC50 in the assay with MCF7 worked out at 1.05 µM; with MDA-MB-231, 0.501 µM.
